The text below walks through data of PubChem BioAssay (NCI).

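Values below derive from 48-hour exposures of cells grown in 96-well plates, with endpoints linearly interpolated between the two concentrations bracketing the appropriate inhibition level. Definition used: TGI = concentration required for complete inhibition of growth.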 Some results are limits rather than exact numbers.

Some test systems named below: U251 CNS; OVCAR-8 ovarian; IGROV1 ovarian; UO-31 renal; LOX IMVI melanoma; NCI/ADR-RES ovarian; K-562 leukemia; 786-0 renal; RXF 393 renal; SK-MEL-28 melanoma.
Holding throughout (assay): NCI anticancer screen, dose series, 48 h

Take `CC(NC(=O)N(C)C)NC(=O)N(C)C`: the TGI in the assay with U251 CNS, in the assay with OVCAR-8 ovarian, in the assay with IGROV1 ovarian, in the assay on UO-31 renal, with LOX IMVI melanoma and with NCI/ADR-RES ovarian was above 10 µM each time. Besides, the TGI in the assay on K-562 leukemia, in the assay with 786-0 renal, in the assay on RXF 393 renal and with SK-MEL-28 melanoma was above 10 µM throughout.
Regarding `COC1=C(C)C(=O)c2c(c(COC(N)=O)c3n2CC(OC(C)=O)C3OC(C)=O)C1=O` (stereo not given), the TGI was 0.789 µM with U251 CNS; 0.373 µM in the assay with OVCAR-8 ovarian; 0.402 µM in the assay on IGROV1 ovarian; 0.49 µM in the assay on UO-31 renal; 1.06 µM in the assay on LOX IMVI melanoma; 0.979 µM with NCI/ADR-RES ovarian. In addition, the TGI with K-562 leukemia is above 100 µM; in the assay with 786-0 renal, 0.0581 µM; in the assay with RXF 393 renal it was 0.428 µM; in the assay with SK-MEL-28 melanoma it was 0.816 µM.
For the compound `NS(=O)(=O)c1cccc(NC(=S)NC(=O)Nc2ccc(Cl)c(Cl)c2)c1`, the TGI in the assay on U251 CNS came out at 39.6 µM; in the assay on OVCAR-8 ovarian it was 32.5 µM; with IGROV1 ovarian it was 45.4 µM; in the assay on UO-31 renal, 37.8 µM; in the assay on LOX IMVI melanoma, 33.4 µM; with NCI/ADR-RES ovarian it was 36.1 µM. Further, the TGI with K-562 leukemia amounted to 37.2 µM; with 786-0 renal, 30.3 µM; with RXF 393 renal, 58.9 µM; with SK-MEL-28 melanoma, 42.9 µM.
For `Nc1nn2c(=O)c3ccccc3nc2s1`, the TGI in the assay with U251 CNS was above 100 µM; in the assay on OVCAR-8 ovarian, above 100 µM; in the assay on IGROV1 ovarian it was above 100 µM; in the assay on UO-31 renal, above 100 µM; with LOX IMVI melanoma, 44.7 µM; in the assay on NCI/ADR-RES ovarian, above 100 µM. Also, the TGI with K-562 leukemia is 88.7 µM; in the assay with 786-0 renal it was above 100 µM; with RXF 393 renal, above 100 µM; in the assay with SK-MEL-28 melanoma it was above 100 µM.
Turning to `O=C(N/N=C/c1ccc(Br)cc1)N/N=C/c1ccc(Br)cc1`, the TGI with U251 CNS was 18.5 µM; in the assay with OVCAR-8 ovarian, 19.8 µM; with IGROV1 ovarian it was 27.7 µM; in the assay on UO-31 renal it was 30.5 µM; with LOX IMVI melanoma it was above 100 µM; in the assay with NCI/ADR-RES ovarian it was 29.6 µM. The TGI in the assay on K-562 leukemia was above 100 µM; with 786-0 renal, 13.4 µM; with RXF 393 renal, 40.5 µM; in the assay on SK-MEL-28 melanoma, 26.9 µM.
For the compound `Oc1[nH]c2ccccc2c1N=NC(=S)Nc1ccc(Cl)cc1`, the TGI in the assay with U251 CNS is above 100 µM; in the assay with OVCAR-8 ovarian it was 98.8 µM; with IGROV1 ovarian it was above 100 µM; in the assay with UO-31 renal, above 100 µM; with LOX IMVI melanoma it was above 100 µM; in the assay with NCI/ADR-RES ovarian, 38.8 µM. The TGI in the assay with K-562 leukemia, with 786-0 renal, in the assay with RXF 393 renal and with SK-MEL-28 melanoma was above 100 µM throughout.
Consider `CCCCn1c(-c2ccc([N+](=O)[O-])cc2)cs/c1=N/N=C1\C(=O)Nc2ccc(Br)cc21`, for which the TGI was 22.9 µM in the assay on U251 CNS; above 100 µM with OVCAR-8 ovarian; above 100 µM with IGROV1 ovarian; 34.2 µM in the assay with UO-31 renal; 39 µM in the assay with LOX IMVI melanoma; 37.4 µM with NCI/ADR-RES ovarian. In addition, the TGI in the assay with K-562 leukemia is 73.1 µM; in the assay on 786-0 renal, 29.8 µM; in the assay on RXF 393 renal it was 22.5 µM; in the assay on SK-MEL-28 melanoma, above 100 µM.
For the compound `N#Cc1nc(C2CCC2)oc1N`, the TGI in the assay with U251 CNS, in the assay with OVCAR-8 ovarian, in the assay with IGROV1 ovarian, in the assay on UO-31 renal, in the assay with LOX IMVI melanoma and in the assay with NCI/ADR-RES ovarian was above 100 µM in each case. Further, the TGI in the assay on K-562 leukemia, with 786-0 renal, with RXF 393 renal and with SK-MEL-28 melanoma was above 100 µM throughout.
On to `COc1ccc(-c2cc(-c3ccccc3)[nH]c(=S)c2C#N)cc1`, for which the TGI in the assay on U251 CNS is 54.4 µM; in the assay on OVCAR-8 ovarian it was 90.5 µM; in the assay on IGROV1 ovarian, above 100 µM; in the assay with UO-31 renal, 45.7 µM; with LOX IMVI melanoma it was above 100 µM; in the assay with NCI/ADR-RES ovarian it was above 100 µM. In addition, the TGI is above 100 µM with K-562 leukemia, 86.3 µM with 786-0 renal, above 100 µM with RXF 393 renal and 58.7 µM with SK-MEL-28 melanoma.
As for `COC(=O)c1cc(C#N)[nH]c1-c1cc(Br)cs1`, the TGI in the assay on U251 CNS was 32.1 µM; with OVCAR-8 ovarian it was 43.7 µM; with IGROV1 ovarian it was 35.3 µM; in the assay on UO-31 renal, 29.5 µM; in the assay with LOX IMVI melanoma, 25.5 µM; with NCI/ADR-RES ovarian, 39.3 µM. The TGI in the assay with K-562 leukemia was above 79.9 µM; with 786-0 renal it was 48.7 µM; with RXF 393 renal, 23 µM; in the assay on SK-MEL-28 melanoma, 36.5 µM.
Take `O=c1[nH]nc(Cc2ccccc2)n1/N=C/c1ccncc1`: the TGI in the assay on U251 CNS, in the assay on OVCAR-8 ovarian, in the assay on IGROV1 ovarian, with UO-31 renal, with LOX IMVI melanoma and in the assay with NCI/ADR-RES ovarian was above 100 µM throughout. In addition, the TGI in the assay with K-562 leukemia, with 786-0 renal, in the assay with RXF 393 renal and in the assay with SK-MEL-28 melanoma was above 100 µM throughout.
Consider `O=C1NCN(c2ccccc2)C12CCN(CCCN1CCN(CCOC(c3ccc(F)cc3)c3ccc(F)cc3)CC1)CC2`, for which the TGI in the assay with U251 CNS was determined as 3.45 µM; in the assay with OVCAR-8 ovarian, 4.82 µM; with IGROV1 ovarian, 4.24 µM; in the assay on UO-31 renal it was 3.25 µM; in the assay on LOX IMVI melanoma it was 3.39 µM; in the assay with NCI/ADR-RES ovarian, 26.7 µM. In addition, the TGI in the assay with K-562 leukemia worked out at 10.5 µM; with 786-0 renal it was 3.2 µM; with RXF 393 renal, 2.25 µM; in the assay on SK-MEL-28 melanoma it was 6.3 µM.
`COc1cc2c(c(O)c1OC)C(=O)C(Cc1ccc(O)cc1)CO2` (stereo not given): the TGI with U251 CNS was above 100 µM; in the assay with OVCAR-8 ovarian, above 100 µM; in the assay on IGROV1 ovarian it was above 100 µM; in the assay on UO-31 renal it was above 100 µM; in the assay on LOX IMVI melanoma it was above 100 µM; in the assay with NCI/ADR-RES ovarian, 39.2 µM. The TGI is above 100 µM in the assay on K-562 leukemia, above 100 µM with 786-0 renal, 54 µM with RXF 393 renal and above 100 µM in the assay with SK-MEL-28 melanoma.
On to `COc1ccc(CC2COc3cc(O)cc(O)c3C2=O)cc1O` (stereo not given), for which the TGI with U251 CNS is above 100 µM; in the assay with OVCAR-8 ovarian it was above 100 µM; with IGROV1 ovarian it was above 100 µM; in the assay on UO-31 renal, above 100 µM; with LOX IMVI melanoma it was above 100 µM; in the assay on NCI/ADR-RES ovarian, 8.78 µM. For the same compound, the TGI was above 100 µM with K-562 leukemia, 92.3 µM in the assay on 786-0 renal, above 100 µM in the assay with RXF 393 renal and above 100 µM with SK-MEL-28 melanoma.
Regarding `Cn1c2ccccc2c(=O)c2c(O)cc3c(c21)C=CC1(CCCCC1)O3`, the TGI in the assay on U251 CNS, in the assay with OVCAR-8 ovarian, with IGROV1 ovarian, in the assay with UO-31 renal, with LOX IMVI melanoma and in the assay on NCI/ADR-RES ovarian was above 10 µM each time. Also, the TGI in the assay with K-562 leukemia, in the assay with 786-0 renal, with RXF 393 renal and in the assay with SK-MEL-28 melanoma was above 10 µM throughout.
Take `CCOC(=O)C1CCC(=O)N1C(=O)c1ccccc1` (stereo not given): the TGI in the assay with U251 CNS, with OVCAR-8 ovarian, in the assay on IGROV1 ovarian, in the assay with UO-31 renal, in the assay on LOX IMVI melanoma and with NCI/ADR-RES ovarian was above 100 µM in each case. Moreover, the TGI with K-562 leukemia, in the assay with 786-0 renal, with RXF 393 renal and in the assay with SK-MEL-28 melanoma was above 100 µM each time.
For the compound `S=c1cc(-c2ccc3c(c2)OCO3)s[nH]1`, the TGI in the assay with U251 CNS, in the assay with OVCAR-8 ovarian, with IGROV1 ovarian, with UO-31 renal, with LOX IMVI melanoma and with NCI/ADR-RES ovarian was above 100 µM throughout. For the same compound, the TGI with K-562 leukemia, in the assay on 786-0 renal, in the assay on RXF 393 renal and with SK-MEL-28 melanoma was above 100 µM each time.
Take `C\C(=N/N=C1/C(=C\N(C)C)C(=O)NC(=O)N1C)c1ccc(Cl)cc1`: the TGI in the assay on U251 CNS, with OVCAR-8 ovarian, with IGROV1 ovarian, in the assay with UO-31 renal, with LOX IMVI melanoma and with NCI/ADR-RES ovarian was above 100 µM each time. The TGI with K-562 leukemia, in the assay with 786-0 renal, with RXF 393 renal and in the assay on SK-MEL-28 melanoma was above 100 µM throughout.
Take `COc1cc(/C=C/C=C2\CC/C(=C\C=C\c3ccc(O)c(OC)c3)C2=O)ccc1O`: the TGI with U251 CNS, in the assay on OVCAR-8 ovarian, with IGROV1 ovarian, in the assay on UO-31 renal, with LOX IMVI melanoma and in the assay with NCI/ADR-RES ovarian was above 100 µM in each case. In addition, the TGI in the assay with K-562 leukemia was 52.7 µM; in the assay on 786-0 renal, above 100 µM; in the assay on RXF 393 renal, 77.7 µM; in the assay with SK-MEL-28 melanoma, above 100 µM.
As for `COc1ccc(N(C(=O)Nc2ccc(Cl)c(Cl)c2)C2c3cccn3C(=O)N2c2ccc(Cl)c(Cl)c2)cc1` (stereo not given), the TGI in the assay with U251 CNS, with OVCAR-8 ovarian, in the assay on IGROV1 ovarian, in the assay with UO-31 renal, in the assay on LOX IMVI melanoma and in the assay with NCI/ADR-RES ovarian was above 100 µM in each case. Besides, the TGI with K-562 leukemia, in the assay with 786-0 renal, in the assay on RXF 393 renal and in the assay with SK-MEL-28 melanoma was above 100 µM in each case.
